Experimental data from patent US20230310352A1, “NOVEL COMPOSITIONS AND METHODS FOR THE TREATMENT OF LUNG FIBROSIS” (LAURENT PHARMACEUTICALS INC., priority 2020, published 2023).

Columns and labels:
[1] = tested on: bleomycin-induced lung fibrosis; assay: Intratracheal bleomycin mouse model of pulmonary fibrosis (28-day model); assay type: in vivo, C57BL/6N mice; conditions: Day 28; oral once daily Day 7 to Day 28; fenretinide 10 mg/kg (as LAU-7b SDI), pirfenidone 100 mg/kg
Excerpt: Oral administration of a solid, amorphous dispersion formulation of fenretinide (LAU-7b SDI) was provided as a treatment for reduction of pulmonary fibrosis, in a mouse model of lung fibrosis induced via a single intratracheal administration of bleomycin, for 21 days. The LAU-7b SDI formulation was obtained by spray drying and contains fenretinide in amorphous form in a solid dispersion comprising a matrix polymer, based on the following formula: 40% fenretinide, 59.6% povidone (KOLLIDON® 30), 0.24% butylated hydroxyanisole (BHA) and 0.16% butylated hydroxytoluene (BHT).
Male C57BL/6N mice from Charles River Laboratories, 10-12 weeks of age, weighing around 20-25 g, at the time of their enrolment, received 50 μL of bleomycin sulfate (2.0 mg/kg) by a single intratracheal instillation on Day 1 of the study to induce lung fibrosis. The sham group received an equivalent volume of 0.9% saline. On Day 7 postbleomycin instillation, the animals were randomized in groups of animals based on their body weight loss and enhanced pause airway resistance estimate (PenH value), while the sham group had 6 mice. Oral dosing by gavage (10 mL/kg) with the vehicle (sham and BLM control groups), the test articles (fenretinide 10 mg/kg), and the reference compound (pirfenidone 100 mg/kg) were administered once daily starting from Day 7 to Day 28. Two hours following the last dose on Day 28, all mice were sacrificed, the lungs of each mouse harvested, flushed with 0.9% NaCl and inflated with 10% neutral buffered formalin solution. After embedding and mounting of the lung tissue (transversal slices of 5 μm thickness), the histology slides were stained with hematoxylin/eosin for the Ashcroft score evaluation by a treatment-blinded pathologist and with Sirius red staining for automated fibrosis quantification (Biocelvia, France).
The key endpoints evaluated in this study were Ashcroft score, pulmonary foci and collagen content obtained by histological assessment of the lung tissue at the end of the study. Statistical analysis was made on normally distributed data by one-way ANOVA followed by multiple comparisons (Fisher's LSD post hoc test) to assess the difference between the groups, using Graph Pad Prism Software version 8.0 (San Diego, CA, USA). Differences were considered statistically significant when P values were p<0.05 (*), or p<0.01 (**) or p<0.001 (***).
Ashcroft scale for the evaluation of bleomycin-induced lung fibrosis is the analysis of stained histological samples by visual assessment. The Ashcroft score was assessed in lung tissue collected on Day 28 by treatment-blinded pathologist on H&E stained lung tissue histology slides (3 cross sections/animal) and using the modified Ashcroft scale. Briefly, each lung section was scanned at a magnification of x100 (H&E staining), read by a blinded examiner, and graded from 0 (normal lung) to 8 (total fibrotic obliteration of the field). Criteria for grading lung fibrosis in Ashcroft scale are as follows: Grade 0=normal lung; Grade 1=minimal fibrous thickening of alveolar or bronchiolar walls; Grade 3=moderate thickening of walls without obvious damage to lung architecture; Grade 5=increased fibrosis with definitive damage to lung structure and formation of fibrous bands or small fibrous masses; Grade 7=severe distortion of structure and large fibrous area; Grade 8=total fibrous obliteration of lung fields. The mean value of the grades obtained for each of the three sections was used as the Ashcroft score. Ashcroft score, using the modified scale, is a reliable and reproducible method of visual quantification of bleomycin induced lung fibrosis in H&E stained histological lung sections based on description of the general morphology of alveolar septa and lung structure. […]

[2] = tested on: bleomycin-induced lung fibrosis; assay: Intratracheal bleomycin mouse model of pulmonary fibrosis (21-day model); assay type: in vivo, C57BL/6N mice; conditions: Day 21; oral once daily for 14 days; fenretinide 10 mg/kg (as LAU-7b SDI), pirfenidone 100 mg/kg
Description: Oral administration of a solid amorphous dispersion formulation of fenretinide (LAU-7b SDI) was evaluated in treating and/or reducing pulmonary fibrosis in mouse model of lung fibrosis induced via a single intratracheal administration of bleomycin followed by vehicle, fenretinide (LAU-7b SDI) or pirfenidone oral treatment for 21 days. The LAU-7b SDI formulation was obtained by spray drying and contains fenretinide in amorphous form in a solid dispersion comprising a matrix polymer, based on the following formula: 40% fenretinide, 59.6% povidone (KOLLIDON® 30), 0.24% butylated hydroxyanisole (BHA) and 0.16% butylated hydroxytoluene (BHT).
Male C57BL/6N mice from Charles River Laboratories, 10-12 weeks of age, weighing around 20-25 g, at the time of their enrolment, received 50 μL of bleomycin sulfate (2.0 mg/kg) by a single intratracheal instillation on Day 1 of the study. The Sham group received an equivalent volume of 0.9% saline. On Day 7 post-bleomycin instillation the animals were randomized in groups of 8 animals based on their body weight loss and Penh value. Oral dosing by gavage (10 mL/kg) with the vehicle (sham and BLM Control groups), LAU-7b SDI (fenretinide at 5 mg/kg and 10 mg/kg dose), and the reference compound (pirfenidone 100 mg/kg) were initiated once daily starting from Day 7 to Day 21. Two hours following the last dose on Day 21 all the mice were sacrificed, the lungs of each mouse were harvested, flushed with 0.9% NaCl and inflated with 10% neutral buffered formalin solution. After embedding and mounting of the lung tissue (transversal slices of 5 μm thickness), the histology slides were stained with hematoxylin/eosin for the Ashcroft score evaluation by a treatment-blinded pathologist, and with Sirius red staining for automated fibrosis quantification (Biocellvia, France).
As in Example 4, the key endpoints evaluated in this study were the Ashcroft score, pulmonary foci and collagen content obtained by histological assessment of the lung tissue at the end of the study. Statistical analysis was made on normally distributed data by one-way ANOVA followed by multiple comparisons (Fisher's LSD post hoc test) to assess the difference between the groups, using Graph Pad Prism Software version 8.0 (San Diego, CA, USA). Differences were considered statistically significant when P values were p<0.05 (*), or p<0.01 (**) or p<0.001 (***). The Ashcroft score was assessed in the lung tissue by treatment-blinded pathologist on the H&E stained histology slides (2 cross sections/animal) and using the modified Ashcroft scale. Briefly, each lung section was scanned at a magnification of ×100 (H&E staining), and graded from 0 (normal lung) to 8 (total fibrotic obliteration of the field). The mean value of the grades obtained for each of the two sections was used as the Ashcroft score.
Pulmonary foci (fibrotic tissue) and lung collagen content were quantified in the Sirius red stained lung tissue histology sections by high resolution, automated digital image analysis (Biocellvia, France) on Day 21 after lung fibrosis induction by bleomycin (BLM) instillation and following a 14-day oral gavage treatment with LAU-7b SDI (fenretinide, two doses), pirfenidone (reference drug) or vehicle only. Full field analysis of 2 lung sections per animal was conducted and the results were expressed as a mean percentage of total surface. This test is considered highly reliable, offering reproducible and observer-independent assessment of quantitative analysis of fibrosis.

## Cc1ccc(=O)n(-c2ccccc2)c1 [pirfenidone]
[1]
  Ashcroft score vs BLM control: did not induce significant improvement
  percentage of collagen content in lung tissue, automated Sirius red analysis, vs BLM control: significantly reduced
  percentage of pulmonary foci (fibrotic tissue), automated Sirius red analysis, vs BLM control: nonsignificant effect
[2]
  Ashcroft score vs BLM control: reduced significantly
  percentage of collagen content, automated Sirius red analysis, vs BLM control: did not induce statistically significant reduction
  percentage of pulmonary foci, automated Sirius red analysis, vs BLM control: did not induce statistically significant reduction
